ChEMBL document CHEMBL5291721, “A preclinical secondary pharmacology resource illuminates target-adverse drug reaction associations of marketed drugs” (Nat Commun, 2023)

Columns and labels:
[1] = target: Voltage-dependent L-type calcium channel subunit alpha-1C (Rattus norvegicus, UniProt P22002); type: functional
[2] = target: T1, 5-hydroxytryptamine receptor 2B (Homo sapiens, UniProt P41595); type: functional, cell-based
Histamine H3 receptor = Histamine H3 receptor (Homo sapiens, UniProt Q9Y5N1)
[3] = target: T2, Alpha-1A adrenergic receptor (Homo sapiens, UniProt P35348); type: functional, cell-based
T2 sequence (P35348 whole entry): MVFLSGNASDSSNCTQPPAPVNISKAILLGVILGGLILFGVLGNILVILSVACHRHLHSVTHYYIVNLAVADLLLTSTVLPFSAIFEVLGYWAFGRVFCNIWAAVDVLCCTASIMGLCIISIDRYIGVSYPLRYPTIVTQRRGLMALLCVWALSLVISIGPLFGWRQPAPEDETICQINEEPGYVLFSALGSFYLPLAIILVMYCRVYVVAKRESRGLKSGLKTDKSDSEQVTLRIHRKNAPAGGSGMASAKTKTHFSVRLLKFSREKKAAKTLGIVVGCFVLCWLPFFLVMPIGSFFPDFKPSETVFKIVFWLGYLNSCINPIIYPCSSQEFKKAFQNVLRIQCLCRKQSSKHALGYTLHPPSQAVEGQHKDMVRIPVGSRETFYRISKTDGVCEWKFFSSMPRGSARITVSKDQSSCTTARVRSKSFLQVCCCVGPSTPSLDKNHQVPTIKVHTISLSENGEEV

Histamine H2 receptor = Histamine H2 receptor (Homo sapiens, UniProt P25021); type: functional, cell-based
Progesterone receptor = target: T3, Progesterone receptor (Homo sapiens, UniProt P06401); type: functional
T3 sequence (P06401 whole entry): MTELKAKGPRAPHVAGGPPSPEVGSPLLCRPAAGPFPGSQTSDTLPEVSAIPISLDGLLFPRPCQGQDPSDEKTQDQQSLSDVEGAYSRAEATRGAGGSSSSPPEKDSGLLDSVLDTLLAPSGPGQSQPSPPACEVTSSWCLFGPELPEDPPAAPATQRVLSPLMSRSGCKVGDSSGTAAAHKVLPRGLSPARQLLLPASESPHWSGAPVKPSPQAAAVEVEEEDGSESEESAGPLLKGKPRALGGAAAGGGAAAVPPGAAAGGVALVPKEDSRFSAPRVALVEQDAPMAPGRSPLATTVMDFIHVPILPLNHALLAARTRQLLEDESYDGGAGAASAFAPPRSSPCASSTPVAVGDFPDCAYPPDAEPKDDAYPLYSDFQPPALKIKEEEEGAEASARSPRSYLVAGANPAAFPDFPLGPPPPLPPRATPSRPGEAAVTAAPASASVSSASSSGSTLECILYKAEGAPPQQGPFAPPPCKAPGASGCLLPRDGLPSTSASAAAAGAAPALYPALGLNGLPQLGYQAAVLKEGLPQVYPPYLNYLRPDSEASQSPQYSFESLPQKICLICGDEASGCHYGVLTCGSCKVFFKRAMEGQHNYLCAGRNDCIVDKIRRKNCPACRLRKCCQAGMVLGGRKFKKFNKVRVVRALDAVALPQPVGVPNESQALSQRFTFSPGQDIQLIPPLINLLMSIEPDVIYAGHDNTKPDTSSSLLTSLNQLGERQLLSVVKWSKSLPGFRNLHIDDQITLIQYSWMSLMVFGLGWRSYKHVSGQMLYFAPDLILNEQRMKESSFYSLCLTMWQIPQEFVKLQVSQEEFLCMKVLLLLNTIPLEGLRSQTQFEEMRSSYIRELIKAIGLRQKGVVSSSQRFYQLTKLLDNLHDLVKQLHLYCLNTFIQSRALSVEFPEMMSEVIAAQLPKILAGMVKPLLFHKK

Mu-type opioid receptor [4] = target: T4, Mu-type opioid receptor (Homo sapiens, UniProt P35372)
Mu-type opioid receptor [5] = target: T4, Mu-type opioid receptor; remark: listed apart in the source
[6] = target: T5, Amine oxidase [flavin-containing] A (Homo sapiens, UniProt P21397); type: functional
T5 sequence (P21397 whole entry): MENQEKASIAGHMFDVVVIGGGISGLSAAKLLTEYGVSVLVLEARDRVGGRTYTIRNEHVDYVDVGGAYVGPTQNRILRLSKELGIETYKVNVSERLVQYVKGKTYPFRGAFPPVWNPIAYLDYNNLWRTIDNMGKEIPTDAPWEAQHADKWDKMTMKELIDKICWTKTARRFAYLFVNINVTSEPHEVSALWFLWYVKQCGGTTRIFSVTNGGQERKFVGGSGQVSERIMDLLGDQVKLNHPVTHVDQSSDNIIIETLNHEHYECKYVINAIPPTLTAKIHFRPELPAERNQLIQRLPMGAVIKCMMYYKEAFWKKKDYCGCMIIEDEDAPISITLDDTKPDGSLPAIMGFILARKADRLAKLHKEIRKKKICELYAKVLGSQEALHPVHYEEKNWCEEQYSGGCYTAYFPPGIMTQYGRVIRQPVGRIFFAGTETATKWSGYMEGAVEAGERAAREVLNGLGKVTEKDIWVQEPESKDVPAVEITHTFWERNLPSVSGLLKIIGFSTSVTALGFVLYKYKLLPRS

[7] = target: Sodium-dependent noradrenaline transporter (Homo sapiens, UniProt P23975)
Thromboxane A2 receptor = target: T6, Thromboxane A2 receptor (Homo sapiens, UniProt P21731); type: functional, cell-based
T6 sequence (P21731 whole entry): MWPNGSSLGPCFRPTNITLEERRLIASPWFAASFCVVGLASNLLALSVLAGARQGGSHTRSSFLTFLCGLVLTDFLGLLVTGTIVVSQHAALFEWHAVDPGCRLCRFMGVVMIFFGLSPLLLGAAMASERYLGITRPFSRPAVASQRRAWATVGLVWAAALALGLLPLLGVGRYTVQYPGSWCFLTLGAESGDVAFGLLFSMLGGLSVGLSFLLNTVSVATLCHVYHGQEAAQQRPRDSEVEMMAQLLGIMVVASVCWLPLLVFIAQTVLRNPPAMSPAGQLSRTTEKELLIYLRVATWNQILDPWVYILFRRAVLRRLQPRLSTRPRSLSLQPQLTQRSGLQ

[8] = target: T1, 5-hydroxytryptamine receptor 2B; type: functional, cell-based; remark: listed apart in the source
Further: assay procedure not described here.

Sequence of Sodium-dependent noradrenaline transporter (P23975 whole entry): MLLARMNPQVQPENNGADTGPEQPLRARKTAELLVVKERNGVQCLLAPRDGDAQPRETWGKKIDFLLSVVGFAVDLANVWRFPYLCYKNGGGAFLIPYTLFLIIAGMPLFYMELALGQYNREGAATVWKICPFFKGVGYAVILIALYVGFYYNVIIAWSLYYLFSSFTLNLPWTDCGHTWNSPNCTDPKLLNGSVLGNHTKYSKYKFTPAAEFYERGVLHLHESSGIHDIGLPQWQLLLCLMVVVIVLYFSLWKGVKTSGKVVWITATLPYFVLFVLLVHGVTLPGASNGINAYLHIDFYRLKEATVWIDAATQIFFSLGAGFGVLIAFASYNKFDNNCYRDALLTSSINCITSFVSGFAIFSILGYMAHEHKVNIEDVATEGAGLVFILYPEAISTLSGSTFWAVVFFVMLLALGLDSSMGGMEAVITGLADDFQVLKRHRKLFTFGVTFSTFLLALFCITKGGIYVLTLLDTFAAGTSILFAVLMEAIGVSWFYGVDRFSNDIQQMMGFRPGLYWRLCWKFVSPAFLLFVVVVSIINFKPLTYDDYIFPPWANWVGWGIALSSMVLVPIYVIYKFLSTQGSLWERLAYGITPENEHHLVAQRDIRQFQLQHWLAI
Sequence of Histamine H2 receptor (P25021 whole entry): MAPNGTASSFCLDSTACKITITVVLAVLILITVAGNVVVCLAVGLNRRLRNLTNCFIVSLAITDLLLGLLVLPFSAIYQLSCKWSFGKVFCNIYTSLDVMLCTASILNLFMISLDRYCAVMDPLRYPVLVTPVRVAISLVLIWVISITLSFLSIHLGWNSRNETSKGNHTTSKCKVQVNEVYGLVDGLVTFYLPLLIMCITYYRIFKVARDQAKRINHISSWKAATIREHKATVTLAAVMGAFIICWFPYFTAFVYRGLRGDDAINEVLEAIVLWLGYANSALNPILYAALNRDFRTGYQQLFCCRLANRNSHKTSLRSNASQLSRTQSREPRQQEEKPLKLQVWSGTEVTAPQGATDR
Sequence of Histamine H3 receptor (Q9Y5N1 whole entry): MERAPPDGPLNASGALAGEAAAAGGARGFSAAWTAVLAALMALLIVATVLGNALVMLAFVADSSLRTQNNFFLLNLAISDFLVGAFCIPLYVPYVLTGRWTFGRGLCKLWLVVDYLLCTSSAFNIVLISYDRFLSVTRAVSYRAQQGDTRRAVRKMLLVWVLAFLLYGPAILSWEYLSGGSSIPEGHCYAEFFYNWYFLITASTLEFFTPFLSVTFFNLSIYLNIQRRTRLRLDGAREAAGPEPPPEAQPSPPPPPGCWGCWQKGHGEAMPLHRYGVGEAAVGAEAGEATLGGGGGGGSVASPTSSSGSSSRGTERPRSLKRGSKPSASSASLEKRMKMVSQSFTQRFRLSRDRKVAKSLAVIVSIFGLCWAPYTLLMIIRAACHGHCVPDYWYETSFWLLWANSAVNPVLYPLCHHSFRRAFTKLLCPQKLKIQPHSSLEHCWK
Sequence of Voltage-dependent L-type calcium channel subunit alpha-1C (P22002 whole entry): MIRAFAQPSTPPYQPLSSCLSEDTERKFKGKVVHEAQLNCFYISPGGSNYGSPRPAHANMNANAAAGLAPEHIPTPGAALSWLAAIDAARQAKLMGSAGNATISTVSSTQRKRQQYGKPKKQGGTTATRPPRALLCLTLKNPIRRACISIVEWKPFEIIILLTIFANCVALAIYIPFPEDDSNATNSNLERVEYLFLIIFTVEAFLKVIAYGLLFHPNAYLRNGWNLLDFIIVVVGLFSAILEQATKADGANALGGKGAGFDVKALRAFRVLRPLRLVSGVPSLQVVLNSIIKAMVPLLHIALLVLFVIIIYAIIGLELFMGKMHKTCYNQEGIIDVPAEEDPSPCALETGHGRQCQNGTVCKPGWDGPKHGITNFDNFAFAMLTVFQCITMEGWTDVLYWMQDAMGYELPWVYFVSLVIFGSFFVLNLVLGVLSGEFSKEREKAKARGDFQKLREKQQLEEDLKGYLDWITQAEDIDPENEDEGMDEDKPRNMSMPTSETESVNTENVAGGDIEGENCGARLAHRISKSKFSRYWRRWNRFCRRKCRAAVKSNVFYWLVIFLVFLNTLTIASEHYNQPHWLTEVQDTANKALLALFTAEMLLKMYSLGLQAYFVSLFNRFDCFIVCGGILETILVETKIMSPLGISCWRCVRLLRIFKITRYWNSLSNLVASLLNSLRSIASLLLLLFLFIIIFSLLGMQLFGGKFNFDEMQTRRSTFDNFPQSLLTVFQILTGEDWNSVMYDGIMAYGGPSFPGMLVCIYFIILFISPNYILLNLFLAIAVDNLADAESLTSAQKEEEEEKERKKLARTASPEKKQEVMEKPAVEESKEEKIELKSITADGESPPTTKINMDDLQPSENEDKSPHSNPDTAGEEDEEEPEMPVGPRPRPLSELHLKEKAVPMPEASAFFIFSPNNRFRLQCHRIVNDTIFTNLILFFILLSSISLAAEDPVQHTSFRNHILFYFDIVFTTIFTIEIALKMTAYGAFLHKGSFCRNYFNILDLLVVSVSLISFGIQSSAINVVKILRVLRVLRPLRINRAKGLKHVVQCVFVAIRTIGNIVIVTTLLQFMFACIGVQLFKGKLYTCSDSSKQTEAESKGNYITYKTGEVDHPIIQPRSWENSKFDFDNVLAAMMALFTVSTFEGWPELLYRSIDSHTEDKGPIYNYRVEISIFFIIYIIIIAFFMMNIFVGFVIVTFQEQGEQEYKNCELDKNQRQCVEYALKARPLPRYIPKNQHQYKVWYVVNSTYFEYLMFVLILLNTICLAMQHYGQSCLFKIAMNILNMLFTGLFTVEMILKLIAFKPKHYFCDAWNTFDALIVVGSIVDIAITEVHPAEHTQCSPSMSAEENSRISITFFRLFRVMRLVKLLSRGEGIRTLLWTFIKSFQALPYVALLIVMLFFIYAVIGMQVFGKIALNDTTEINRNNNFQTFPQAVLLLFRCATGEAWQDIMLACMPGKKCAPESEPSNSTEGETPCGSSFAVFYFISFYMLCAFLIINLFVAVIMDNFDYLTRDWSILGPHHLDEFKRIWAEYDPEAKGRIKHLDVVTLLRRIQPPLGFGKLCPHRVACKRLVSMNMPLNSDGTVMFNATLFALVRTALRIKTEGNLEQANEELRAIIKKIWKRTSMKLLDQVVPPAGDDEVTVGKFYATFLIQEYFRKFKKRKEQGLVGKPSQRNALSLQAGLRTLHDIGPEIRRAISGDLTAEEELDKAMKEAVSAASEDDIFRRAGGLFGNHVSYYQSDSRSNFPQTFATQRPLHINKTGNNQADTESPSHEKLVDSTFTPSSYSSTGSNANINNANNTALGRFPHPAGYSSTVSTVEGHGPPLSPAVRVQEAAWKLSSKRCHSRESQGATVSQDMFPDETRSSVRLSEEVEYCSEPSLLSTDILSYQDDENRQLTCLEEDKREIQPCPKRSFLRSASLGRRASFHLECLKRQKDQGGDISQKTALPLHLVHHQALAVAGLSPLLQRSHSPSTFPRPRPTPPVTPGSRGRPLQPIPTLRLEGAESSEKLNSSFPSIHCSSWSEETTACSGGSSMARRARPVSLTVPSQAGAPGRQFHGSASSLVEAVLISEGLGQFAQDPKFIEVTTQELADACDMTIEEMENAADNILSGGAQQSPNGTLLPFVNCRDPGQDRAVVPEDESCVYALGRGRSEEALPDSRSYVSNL
T4 sequence (P35372 whole entry): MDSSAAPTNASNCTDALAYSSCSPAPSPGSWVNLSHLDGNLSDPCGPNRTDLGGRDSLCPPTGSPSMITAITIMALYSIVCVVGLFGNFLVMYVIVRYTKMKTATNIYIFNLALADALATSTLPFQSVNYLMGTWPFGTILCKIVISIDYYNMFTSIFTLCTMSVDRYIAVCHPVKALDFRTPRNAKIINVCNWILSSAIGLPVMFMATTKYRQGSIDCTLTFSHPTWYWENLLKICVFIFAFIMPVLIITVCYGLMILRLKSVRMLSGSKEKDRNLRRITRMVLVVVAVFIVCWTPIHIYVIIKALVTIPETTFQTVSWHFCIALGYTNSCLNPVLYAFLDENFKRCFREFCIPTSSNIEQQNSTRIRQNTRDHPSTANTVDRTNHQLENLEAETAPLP
T1 sequence (P41595 whole entry): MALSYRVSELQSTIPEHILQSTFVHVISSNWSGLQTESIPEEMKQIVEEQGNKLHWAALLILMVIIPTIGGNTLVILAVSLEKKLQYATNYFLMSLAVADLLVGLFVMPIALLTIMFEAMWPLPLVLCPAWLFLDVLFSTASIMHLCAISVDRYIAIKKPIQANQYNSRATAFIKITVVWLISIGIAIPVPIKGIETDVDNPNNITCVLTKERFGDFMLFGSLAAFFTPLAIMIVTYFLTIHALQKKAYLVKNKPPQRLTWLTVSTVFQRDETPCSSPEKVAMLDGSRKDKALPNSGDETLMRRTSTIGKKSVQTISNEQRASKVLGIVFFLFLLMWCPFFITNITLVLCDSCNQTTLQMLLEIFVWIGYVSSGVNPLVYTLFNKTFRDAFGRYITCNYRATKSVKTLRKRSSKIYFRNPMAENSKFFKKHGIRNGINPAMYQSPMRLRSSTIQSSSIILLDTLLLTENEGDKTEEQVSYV

SMILES | AC50 [1] [µM] | AC50 [2] [µM] | AC50 (Histamine H3 receptor) [µM] | AC50 [3] [µM] | AC50 (Histamine H2 receptor) [µM] | AC50 (Progesterone receptor) [µM] | AC50 (Mu-type opioid receptor [4]) [µM] | AC50 (Mu-type opioid receptor [5]) [µM] | AC50 [6] [µM] | AC50 [7] [µM] | AC50 (Thromboxane A2 receptor) [µM] | AC50 [8] [µM]
CC(/C=C1\SC(=S)N(CC(=O)O)C1=O)=C\c1ccccc1 | > 30 | > 30 | > 30 | 25 | > 30 | > 30 |  |  |  |  |  | 
O=C1CN2Cc3c(ccc(Cl)c3Cl)N=C2N1 [ANAGRELIDE] | > 10 | > 10 | > 10 | > 30 | > 10 |  | > 30 |  |  |  |  | 
CNCC[C@@H](Oc1ccccc1C)c1ccccc1 [ATOMOXETINE] | > 30 | > 30 | 30 | > 30 | > 30 | > 30 |  |  |  |  |  | 
C=C(C)[C@@H]1CCC(C)=C[C@H]1c1c(O)cc(CCCCC)cc1O [CANNABIDIOL] |  | > 30 | 26 | > 10 |  | > 10 |  |  |  |  |  | 
CO/N=C(\C(=O)N[C@@H]1C(=O)N2C(C(=O)O)=C(COC(N)=O)CS[C@H]12)c1ccco1 [CEFUROXIME] |  | > 30 | > 30 | > 30 | > 30 |  |  |  |  |  |  | 
Clc1cccc(Cl)c1N=C1NCCN1 [CLONIDINE] | > 10 | > 10 | > 10 |  | 0.39 |  | > 30 |  |  |  |  | 
CN1C[C@H](C(=O)N[C@]2(C)O[C@@]3(O)[C@@H]4CCCN4C(=O)[C@H](Cc4ccccc4)N3C2=O)C[C@@H]2c3cccc4[nH]cc(c34)C[C@H]21 [DIHYDROERGOTAMINE] | > 10 | 2.77 | > 10 |  | 0.62 |  | > 30 |  |  |  |  | 
CNCC[C@H](Oc1cccc2ccccc12)c1cccs1 [DULOXETINE] | > 10 | > 10 |  |  | > 10 |  | 12 |  |  |  |  | 
CCC(=O)O[C@@H](O[P@](=O)(CCCCc1ccccc1)CC(=O)N1C[C@H](C2CCCCC2)C[C@H]1C(=O)O)C(C)C [FOSINOPRIL] |  | > 30 |  | > 30 | > 30 |  |  | > 30 | > 30 | > 30 | > 30 | > 30
Nc1nc(O)c2ncn(COC(CO)CO)c2n1 [GANCICLOVIR] | > 30 | > 30 | > 30 | > 30 | > 30 | > 30 |  |  |  |  |  | 
Cc1cnc(NC(=O)C2=C(O)c3ccccc3S(=O)(=O)N2C)s1 [MELOXICAM] | > 10 | > 10 | > 10 | > 30 | > 10 |  | > 10 |  |  |  |  | 
CC(=O)Oc1ccccc1C(=O)Nc1ncc([N+](=O)[O-])s1 [NITAZOXANIDE] | > 30 | > 30 | 10 | 8.6 | > 30 | > 30 |  | > 30 | > 30 | > 30 | > 10 | > 30
CNCCC=C1c2ccccc2CCc2ccccc21 [NORTRIPTYLINE] | > 30 | > 30 | > 30 | 0.036 | > 30 | > 30 |  |  |  |  |  | 
CN(C)c1cc(CNCC(C)(C)C)c(O)c2c1C[C@H]1C[C@H]3[C@H](N(C)C)C(O)=C(C(N)=O)C(=O)[C@@]3(O)C(O)=C1C2=O [OMADACYCLINE] |  | > 30 | 24 | > 30 | > 30 | > 30 |  | > 30 | > 30 | > 30 | > 10 | > 30
COc1ccnc(C[S+]([O-])c2nc3ccc(OC(F)F)cc3[nH]2)c1OC (stereo not given) [PANTOPRAZOLE] | > 10 | > 10 | > 10 | > 30 | > 10 |  | > 30 |  |  |  |  | 
COc1ccc(Cc2nccc3cc(OC)c(OC)cc23)cc1OC [PAPAVERINE] | > 30 | > 30 | > 30 | > 30 | > 30 | > 30 |  |  |  |  |  | 
CNC[C@H](O)c1cccc(O)c1 [PHENYLEPHRINE] | > 10 | > 30 | > 10 |  | > 10 |  | > 10 | > 30 | > 30 | > 30 | > 30 | > 30
CNC(=O)c1cc(Oc2ccc(NC(=O)Nc3ccc(Cl)c(C(F)(F)F)c3)c(F)c2)ccn1 [REGORAFENIB] |  |  |  | > 30 |  | > 30 |  | 4.43 | > 30 | 20 | 6.35 | > 30
O=C(Nc1c(Cl)cncc1Cl)c1ccc(OC(F)F)c(OCC2CC2)c1 [ROFLUMILAST] |  | > 30 | > 30 | > 30 | > 30 |  |  |  |  |  |  | 
CC(=O)S[C@@H]1CC2=CC(=O)CC[C@]2(C)[C@H]2CC[C@@]3(C)[C@@H](CC[C@@]34CCC(=O)O4)[C@H]12 [SPIRONOLACTONE] | > 10 | > 30 | > 30 | > 30 | > 10 |  | > 30 |  |  |  |  | 
CN1CCN(CCCN2c3ccccc3Sc3ccc(S(=O)(=O)N(C)C)cc32)CC1 [THIOPROPERAZINE] |  | > 30 |  | 1 | > 30 |  |  | 11.6 | > 30 | 16.8 | 9.38 | > 30
CC1(C)O[C@@H]2[C@@H](CO[C@@]3(COS(N)(=O)=O)OC(C)(C)O[C@@H]23)O1 [TOPIRAMATE] | > 10 | > 10 | > 10 |  | > 10 |  | > 10 | > 30 | > 30 | > 30 | > 30 | > 30
Cc1cc(CC(=O)O)n(C)c1C(=O)c1ccc(Cl)cc1 [ZOMEPIRAC] | > 30 | > 30 | > 30 | > 30 | > 30 | > 30 |  |  |  |  |  | 
